Patent publication US9573970B2, “4-{4-[(1E)-4-(2,9-diazaspiro[5.5]undec-2-yl)but-1-en-1-yl]-2-methylbenzyl}-5-(propan-2-yl)-1H-pyrazol-3-yl beta-D glucopyranoside acetate” (Eli Lilly and Company, priority 2013, dated 2017)

Tests used:
[1] = test system: normal glycemic C57B1/6 mouse; test: Glucose lowering effects in oral glucose tolerance test (OGTT); assay type: in vivo; conditions: for Glucose, 20 Minute: 20 min after dextrose; for Glucose, 20 Minute / Glucose, 40 Minute / Glucose, 60 Minute / Glucose, 120 Minute / Baseline Adjusted AUC (glucose) / Glucose, 0 Minute: mean ± SE; for Glucose, 40 Minute: 40 min after dextrose; for Glucose, 60 Minute: 60 min after dextrose; for Glucose, 120 Minute: 120 min after dextrose; for Baseline Adjusted AUC (glucose): OGTT; for Glucose, 0 Minute: baseline 3 h after compound, before dextrose 3 g/kg
Description: The test compound is formulated by adding a vehicle of 1% hydroxyethylcellulose, 0.25% Tween® 80 w/antifoam 0.05% to preweighed test compound to make a 1 mg/ml solution. The mixture is probe sonicated for approximately 30 seconds. The resulting solution is used as a stock solution from which the lower concentration dose solutions are prepared by dilution with the vehicle.
Single housed C57B1/6 mice are fasted overnight by removing access to food the late afternoon before test day. The following morning, the mice are weighed and a single fasting blood sample is taken by tail snip to measure glucose by glucometer (Roche AccuChek). Study groups (n=5) are determined based on fasted blood glucose and comprise preferably animals in the range of 80-100 mg/dl glucose.
After grouping, the first mouse is orally gavaged with 10 ml/kg test compound preparation and a timer started. Each subsequent animal is dosed a minute and a half apart. Three hours after the first compound treatment is started, a baseline blood sample is taken for measuring glucose (from the first animal, via tail snip). The animal is then immediately given an oral dose of 50% dextrose (Hospira) at 3 g/kg. Blood samples are taken for glucose, exactly a minute and half apart, by tail vein so that blood is collected in each animal at 20, 40, 60 and 120 minutes after the dextrose dose.

mouse SGLT1 = biological target: T1, mouse SGLT1 (Mus musculus, UniProt Q8C3K6); test: Sodium-dependent 14C-AMG uptake in CHO-K1 cells expressing mouse SGLT1; assay type: cell-based; conditions: n = 9
T1 sequence (Q8C3K6 1-665): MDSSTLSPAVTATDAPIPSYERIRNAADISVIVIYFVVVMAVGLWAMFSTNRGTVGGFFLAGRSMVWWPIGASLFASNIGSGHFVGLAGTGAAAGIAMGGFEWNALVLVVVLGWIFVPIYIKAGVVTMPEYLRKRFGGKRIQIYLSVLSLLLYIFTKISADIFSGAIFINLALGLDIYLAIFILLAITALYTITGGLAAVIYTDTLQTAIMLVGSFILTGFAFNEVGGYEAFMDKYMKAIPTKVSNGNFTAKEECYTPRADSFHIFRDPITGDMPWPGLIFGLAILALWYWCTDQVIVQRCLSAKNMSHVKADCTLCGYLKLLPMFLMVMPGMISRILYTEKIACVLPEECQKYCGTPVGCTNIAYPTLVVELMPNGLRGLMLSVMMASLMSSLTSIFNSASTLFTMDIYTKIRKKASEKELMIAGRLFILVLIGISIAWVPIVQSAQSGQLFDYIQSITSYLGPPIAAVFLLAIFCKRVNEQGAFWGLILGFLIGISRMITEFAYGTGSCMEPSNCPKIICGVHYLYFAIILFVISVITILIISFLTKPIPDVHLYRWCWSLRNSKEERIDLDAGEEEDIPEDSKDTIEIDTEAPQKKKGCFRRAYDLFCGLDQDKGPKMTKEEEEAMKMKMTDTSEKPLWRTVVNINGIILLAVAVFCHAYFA
Source text: The cDNA encoding human SGLT1 (slc5a1, NM_000343), human SGLT2 (slc5a2, NM_003041) and mouse SGLT1 (slc5a1, NM_019810.4) are purchased from Openbiosystems, Invitrogen and Openbiosystems, respectively. The cDNA is cloned into pcDNA3.1+ for mammalian expression and is stably transfected into Chinese hamster ovary (CHO)-K1 cells using standard mammalian transfection procedures. An SGLT-expressing sub-clone of each over-expressing cell line is selected based on resistance to neomycin (Geneticin, Invitrogen) and activity in the ^14C-α-methyl-D-glucopyranoside (^14C-AMG) uptake assay (see below). Stable SGLT-expressing cells are maintained using standard cell culture techniques.
The SGLT activity is measured as sodium-dependent ^14C-AMG uptake in the above cell lines described as follows. One hundred μL of culture medium containing 30,000 cells are seeded to each well of a 96-well BioCoat poly-D-lysine plate (Becton Dickson) and cultured at 37° C. overnight. The culture medium is aspirated and cells are washed twice with 200 μL of Reaction Buffer (140 mM NaCl, 2 mM KCl, 1 mM CaCl2, MgCl2, and 14 mM N-2-hydroethylpiperrazine-N′-2-ethanesulfonic acid (Hepes), pH 7.5). The excess buffer is tapped out onto paper towels. Thirty-five μL of Reaction Buffer are added to each well. […] After mixing, the scintillation signal in the plate is counted in a MicroBeta (PerkinElmer). […]

Q: What does the source list for `Cc1cc(/C=C/CCN2CCCC3(CCNCC3)C2)ccc1Cc1c(O[C@@H]2O[C@H](CO)[C@@H](O)[C@H](O)[C@H]2O)n[nH]c1C(C)C` [Example 1 (free base), 4-{4-[(1E)-4-(2,9-diazaspiro[5.5]undec-2-yl)but-1-en-1-yl]-2-methylbenzyl}-5-(propan-2-yl)-1H-pyrazol-3-yl beta-D-glucopyranoside]?
A: Glucose, 20 Minute ([1]; 0.3 mg/kg oral): 185 ± 13.7 mg/dL; Glucose, 40 Minute ([1]; 0.3 mg/kg oral): 197 ± 14.7 mg/dL; Glucose, 60 Minute ([1]; 0.3 mg/kg oral): 164 ± 6.3 mg/dL; Glucose, 120 Minute ([1]; 0.3 mg/kg oral): 121 ± 11.8 mg/dL; Baseline Adjusted AUC (glucose) ([1]; 0.3 mg/kg oral, in mg·min/dL): 5400 ± 519^; Glucose, 0 Minute ([1]; 0.3 mg/kg oral): 78 ± 4.2 mg/dL; Glucose, 20 Minute ([1]; 1 mg/kg oral): 147 ± 8.3 mg/dL; Glucose, 40 Minute ([1]; 1 mg/kg oral): 171 ± 11.1 mg/dL; Glucose, 60 Minute ([1]; 1 mg/kg oral): 162 ± 5.8 mg/dL; Glucose, 120 Minute ([1]; 1 mg/kg oral): 109 ± 7.3 mg/dL; Baseline Adjusted AUC (glucose) ([1]; 1 mg/kg oral, in mg·min/dL): 4158 ± 374^; Glucose, 0 Minute ([1]; 1 mg/kg oral): 76 ± 3.3 mg/dL; Glucose, 20 Minute ([1]; 3 mg/kg oral): 133 ± 7.1 mg/dL; Glucose, 40 Minute ([1]; 3 mg/kg oral): 150 ± 7.5 mg/dL; Glucose, 60 Minute ([1]; 3 mg/kg oral): 155 ± 7.2 mg/dL; Glucose, 120 Minute ([1]; 3 mg/kg oral): 115 ± 10 mg/dL; Baseline Adjusted AUC (glucose) ([1]; 3 mg/kg oral): 3606 ± 421; Glucose, 0 Minute ([1]; 3 mg/kg oral): 72 ± 2.6 mg/dL; Glucose, 20 Minute ([1]; 10 mg/kg oral): 124 ± 1.2 mg/dL; Glucose, 40 Minute ([1]; 10 mg/kg oral): 137 ± 5.4 mg/dL; Glucose, 60 Minute ([1]; 10 mg/kg oral): 138 ± 6.1 mg/dL; Glucose, 120 Minute ([1]; 10 mg/kg oral): 114 ± 4.3 mg/dL; Baseline Adjusted AUC (glucose) ([1]; 10 mg/kg oral): 2693 ± 309; Glucose, 0 Minute ([1]; 10 mg/kg oral): 78 ± 5.4 mg/dL; Baseline adjusted glucose AUC during an OGTT ([1]; 0.3-10 mg/kg oral, in words): dose dependent decrease in baseline adjusted glucose area under the curve (AUC); Glucose excursion following an oral bolus of 50% dextrose ([1]; 0.3-10 mg/kg oral, in words): dose dependent decrease in the glucose excursion; IC50 (mouse SGLT1): 0.01 ± 0.002 µM
